Calls of active or inactive are those of the source. The rule behind the calls is not given here.
Columns and labels:
Assay type in all cases: functional, cell-based
HL-60 [1] = assay: Cytotoxicity against human HL60 cells after 24 hrs by MTT assay; conditions: HL-60, 24 h
HCT-15 = assay: Cytotoxicity against human HCT15 cells after 48 hrs by MTT assay; conditions: HCT-15, 48 h
HL-60 [2] = assay: Induction of apoptosis in human HL60 cells assessed as DNA fragmentation at 35 uM after 8 hrs

Row | SMILES | IC50 (HL-60 [1]) | IC50 (HCT-15) | Activity (HL-60 [2])
1 | CC(C(=O)O)[C@@H](C)C(=O)C[C@@H](C)[C@H]1CC[C@@]2(C)C3=C(CC[C@]12C)[C@@]1(C)CC[C@@H](OC(=O)CC(=O)O)C(C)(C)[C@@H]1CC3 (some centres not stated) [CARBOXYACETYLQUERCINIC ACID] | 45.2 µM | 155 µM | 
2 | C=C(CC[C@@H](C(=O)O)[C@H]1[C@H](O)C[C@@]2(C)c3ccc(C)c(CCC(=O)C(C)C)c3CC[C@]12C)C(C)C [DAEDALEANIC ACID A] | 36 µM | 206 µM | 
3 | C=C(CC[C@@H](C(=O)O[C@@H]1O[C@H](CO)[C@@H](O)[C@H](O)[C@H]1O)[C@H]1[C@H](OC(C)=O)C[C@@]2(C)C3=CC[C@H]4C(C)(C)C(=O)CC[C@]4(C)C3=CC[C@]12C)C(C)C [DAEDALEASIDE B] | 9.4 µM | 55 µM | Active
4 | C=C(CC[C@@H](C(=O)O[C@@H]1O[C@H](COC(C)=O)[C@@H](O)[C@H](O)[C@H]1O)[C@H]1[C@H](OC(C)=O)C[C@@]2(C)C3=CC[C@H]4C(C)(C)C(=O)CC[C@]4(C)C3=CC[C@]12C)C(C)C [DAEDALEASIDE C] | 12 µM |  | Active
5 | C=C(CC[C@@H](C(=O)O[C@@H]1O[C@H](CO)[C@@H](O)[C@H](O)[C@H]1O)[C@H]1[C@H](OC(C)=O)C[C@@]2(C)C3=C(CC[C@]12C)[C@@]1(C)CCC(=O)C(C)(C)[C@@H]1CC3)C(C)C [DAEDALEASIDE D] | 14 µM | 60 µM | Active
6 | C=C(CC[C@@H](C(=O)O[C@@H]1O[C@H](COC(C)=O)[C@@H](O)[C@H](O)[C@H]1O)[C@H]1[C@H](OC(C)=O)C[C@@]2(C)C3=C(CC[C@]12C)[C@@]1(C)CCC(=O)C(C)(C)[C@@H]1CC3)C(C)C [DAEDALEASIDE E] | 15 µM |  | Active
7 | C=C(CC[C@@H](C(=O)O[C@@H]1O[C@H](CO)[C@@H](O)[C@H](O)[C@H]1O)[C@H]1[C@H](OC(C)=O)C[C@@]2(C)c3ccc(C)c(CCC(=O)C(C)C)c3CC[C@]12C)C(C)C [DAEDALEASIDES A] | 27.9 µM | 32.3 µM | 
8 | COc1cc([C@@H]2c3cc4c(cc3[C@@H](O[C@@H]3O[C@@H]5CO[C@@H](C)O[C@H]5[C@H](O)[C@H]3O)[C@H]3COC(=O)[C@H]23)OCO4)cc(OC)c1O [ETOPOSIDE] | 25 µM |  | 
